These results are taken from publication PMC12794078, “Real-Time Binding Kinetics of Small Molecules to CA IX in Live Suspension Cells Using SPR Microscopy” (ACS Medicinal Chemistry Letters, 2025).

The target in test [1] is CA IX on live Ramos B cells (Homo sapiens, UniProt Q16790). Put plainly: SPRM kinetic titration of small molecules on live Ramos B suspension cells (1:1 kinetic model, 600 ROIs).
Experimental: All cells were maintained in an incubator at 37 °C with 5% CO2 before seeding. For every experiment, cell viability was determined with Trypan blue using a TC20 cell counter (BioRad). PLL precoated SPRM sensor chips were prepared according to manufacturer’s protocol (Gibco, cat. # A3890401). 5K Ramos B cells at 99% viability were gently seeded onto PLL precoated SPRM sensor chips containing 600 μL of Mccoy medium 5A supplemented with 10% FBS and then incubated at 37 °C with 5% CO2. After 72 h of incubation, cells were washed with live cell imaging buffer (A59688DJ) twice and immediately followed by SPRM analysis. […] All experiments were performed with a commercially available Ramos B cell line.
SPRM is highly sensitive to ligand binding events on the cell membrane, which induces dielectric changes that are recorded as sensorgrams. Moreover, its high-resolution diffraction limited optics produces sensorgrams of subcellular response regions, enabling detailed evaluation of binding heterogeneity.
High resolution SPRM measurements were generated by uniformly segmenting the sensing area (600 μm × 450 μm area) into a virtual grid of 600 regions of interest (ROI). For every ROI, a 1:1 kinetic binding interaction model was applied. Bare area ROIs were subtracted as references from the cell area ROIs. The SPRM kinetic analysis results of all ROIs were aggregated for statistical analysis. ImageSPR software (Biosensing Instrument Inc., Tempe AZ) was used to generate the sensorgrams, fitting, and statistical analysis of binding interactions. ROIs that detected a response which fitted well to the kinetic interaction model were collectively plotted onto an isoaffinity scatter plot for statistical analysis of the binding heterogeneity (Figure ). Histograms extracted from the isoaffinity scatter plot were fit with Gaussian distributions to obtain mean values and standard deviations for the association rate (k a), dissociation rate (k d), and equilibrium dissociation constant (KD). Subsequently, those ROIs that observe binding responses were highlighted in red and overlaid onto the SPRM image to more clearly evaluate the extent of cell-specific and nonspecific binding.
For another test, the target named is CA II. As to conditions: ex vitro purified CA II, published values; reference number not given; read-out: Reported values CA II; cited from earlier work.
The mark [2] stands for this setting: association rate, membrane-bound CA IX, live Ramos B cells.
Where [3] appears, read: dissociation rate, membrane-bound CA IX, live Ramos B cells.

Structures are written as SMILES. Like-named read-outs stand apart in the source and are kept apart here.

Turning to `NS(=O)(=O)c1ccc(C(=O)O)cc1` [4-CBS, 4-Carboxybenzenesulfonamide], the Kd came to 870 nM in test [1] (Batch 1), 1000 nM in test [1] (Batch 2), 780 nM in test [1] (Batch 3) and 870 nM in test [1] (SPRM results for CA IX).

As for `CN(C)c1cccc2c(S(N)(=O)=O)cccc12` [Dansylamide], the Kd in test [1] (Batch 1, live Ramos B cells, experiment/batch 1) is 586 nM; in test [1] (Batch 2, live Ramos B cells, experiment/batch 2), 542 nM; in test [1] (Batch 3, live Ramos B cells, experiment/batch 3), 534 nM; in test [1] (SPRM results for CA IX, membrane-bound CA IX, live Ramos B cells, Gaussian mean over ROIs), 586 nM; on CA II, 760 nM. Further, the “k a, SPRM results for CA IX” value in test [1] (setting [2]) was 2.53 × 10^03 M^–1 s^–1. In test [1] (setting [3]), the “kd, SPRM results for CA IX” value was 2.34 × 10^–03 s^–1.

Consider `NS(=O)(=O)c1cc(C(=O)O)c(NCc2ccco2)cc1Cl` [Furosemide], for which the “k a, SPRM results for CA IX” value in test [1] (setting [2]) is recorded as 1.10 × 10^03 M^–1 s^–1. Besides, in test [1] (setting [3]), the “kd, SPRM results for CA IX” value is reported as 1.16 × 10^–03 s^–1.

On to `Nc1ccc(S(N)(=O)=O)cc1` [Sulfanilamide], for which, in test [1], the “k a, SPRM results for CA IX” value is recorded as 4.40 × 10^03 M^–1 s^–1 and the “kd, SPRM results for CA IX” value is 1.39 × 10^–03 s^–1.
